In ChEMBL document CHEMBL1777789, “The square conformation of phenylglycine-incorporated ascidiacyclamide is stabilized by CH/π interactions between amino acid side chains” (2011):
≈ marks a conversion by molar mass, not a printed value.

Assays:
P388 = assay: Cytotoxicity against mouse P388 cells after 72 hrs by MTT assay; format: functional; settings: P388, 72 h, read-out: ED50
HL-60 = assay: Cytotoxicity against human HL60 cells after 72 hrs by MTT assay; format: functional; settings: HL-60, 72 h, read-out: ED50

CC[C@H](C)[C@@H]1NC(=O)c2csc(n2)[C@@H](C(C)C)NC(=O)[C@H]2N=C(O[C@@H]2C)[C@H](c2ccccc2)NC(=O)c2csc(n2)[C@@H](C(C)C)NC(=O)[C@H]2N=C1O[C@@H]2C
EC50 (P388): 12.4 µg/mL (≈ 16 µM)
EC50 (HL-60): 12.8 µg/mL (≈ 16.5 µM)

CC[C@H](C)[C@@H]1NC(=O)c2csc(n2)[C@@H](C(C)C)NC(=O)[C@H]2N=C(O[C@@H]2C)[C@H]([C@@H](C)CC)NC(=O)c2csc(n2)[C@@H](C(C)C)NC(=O)[C@H]2N=C1O[C@@H]2C [ASCIDIACYCLAMIDE]
EC50 (P388): 10.5 µg/mL (≈ 13.9 µM)
EC50 (HL-60): 33.5 µg/mL (≈ 44.3 µM)
